This test addresses T1, E-selectin (Homo sapiens, UniProt P16581).
T1 sequence (P16581 whole entry): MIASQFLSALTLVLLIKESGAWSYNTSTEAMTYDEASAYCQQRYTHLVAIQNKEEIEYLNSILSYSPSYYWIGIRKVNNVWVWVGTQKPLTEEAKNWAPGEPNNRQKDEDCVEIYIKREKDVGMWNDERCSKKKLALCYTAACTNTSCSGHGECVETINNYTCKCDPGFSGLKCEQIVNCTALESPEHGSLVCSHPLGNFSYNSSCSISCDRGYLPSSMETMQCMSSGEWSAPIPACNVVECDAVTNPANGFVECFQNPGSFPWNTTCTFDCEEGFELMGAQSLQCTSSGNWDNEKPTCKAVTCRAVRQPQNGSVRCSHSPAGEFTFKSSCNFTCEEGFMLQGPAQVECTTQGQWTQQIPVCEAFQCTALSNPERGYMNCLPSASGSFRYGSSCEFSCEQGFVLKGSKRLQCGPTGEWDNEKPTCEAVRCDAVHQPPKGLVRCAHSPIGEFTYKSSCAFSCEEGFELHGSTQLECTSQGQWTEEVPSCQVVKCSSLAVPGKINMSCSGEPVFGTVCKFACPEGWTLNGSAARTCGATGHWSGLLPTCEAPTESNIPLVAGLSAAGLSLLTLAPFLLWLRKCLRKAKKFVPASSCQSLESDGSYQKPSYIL
Briefly: Inhibitory activity against Selectin E.

Some results are limits rather than exact numbers.

By IC50 is commonly meant the concentration at which inhibition is half-maximal.

In turn, `CC(=O)N[C@H]1[C@H]([C@H](O)[C@H](O)CO)O[C@@](O[C@H]2[C@@H](O)[C@@H](CO)O[C@@H](O[C@@H]([C@H](O[C@@H]3O[C@@H](C)[C@@H](O)[C@@H](O)[C@@H]3O)[C@H](C=O)NC(C)=O)[C@H](O)CO)[C@@H]2O)(C(=O)O)C[C@@H]1O` [SIALYL LEWIS X] had an IC50 of less than 1000 µM.

Values taken from ChEMBL document CHEMBL1149996, “Combined glycomimetic and multivalent strategies for the design of potent selectin antagonists” (Bioorg Med Chem Lett, 1996).
